Results on 1 compound are retold here after patent publication US9708305B2, “Substituted 1,2,3,4-tetrahydroisoquinoline derivatives for the treatment of hormone-dependent diseases” (UNIVERSITÉ LAVAL, priority 2013, dated 2017).

For experiment [1], the system named is MCF-7 (ER+) cells. Kind of experiment: Proliferative (estrogenic) activity on MCF-7 (ER+) cells. It counts as cell-based. The note with it: 0.1 nM; 7 days; control 100%. As for the experimental part: The next step was to determine the presence or absence of estrogenic activity. To do so, cell proliferative assays were carried out on MCF-7 cells. […] Phenols of the corresponding sulfamate library 3-EO and 4-EO are referred to as library 3′-EO and library 4′-EO, respectively.
This cell assay was carried out according to a procedure previously described to determine the estrogenic activity of enzyme inhibitors on the growth of estrogen-sensitive MCF-7 cells.^77 All chemicals tested were first dissolved in DMSO and subsequent dilutions were done in the proper cell culture media. The final concentration of DMSO in the culture medium was 0.1% or less. 3-(4,5-dimethylthiazol-2-yl)-5-(3-carboxymethoxyphenyl)-2-(4-sulfophenyl)-2-H-tetrazolium (MTS) was used as an indirect colorimetric measurement of cell proliferation according to the manufacturer's instructions (Promega, Madison, Wis.). At the end of the treatments, 20 μL of MTS solution was added to each well (100 μL) and the MCF-7 cells were incubated 4 h at 37° C. The absorbance at 490 nm was then measured with a Thermo max microplate reader (Molecular Devices, Sunnyvale, Calif.). The control (culture media+DMSO) is set to 100% of cell proliferation.

Experiment [2] has as its target T1, steroid sulfatase (STS) (Homo sapiens, UniProt P08842).
T1 construct: expressed in transfected cells; host or cells: HEK-293 cells stably transfected with STS (G418 selection), obtained from Dr. Van Luu-The; used as freeze-thaw homogenate
T1 sequence (P08842 22-583): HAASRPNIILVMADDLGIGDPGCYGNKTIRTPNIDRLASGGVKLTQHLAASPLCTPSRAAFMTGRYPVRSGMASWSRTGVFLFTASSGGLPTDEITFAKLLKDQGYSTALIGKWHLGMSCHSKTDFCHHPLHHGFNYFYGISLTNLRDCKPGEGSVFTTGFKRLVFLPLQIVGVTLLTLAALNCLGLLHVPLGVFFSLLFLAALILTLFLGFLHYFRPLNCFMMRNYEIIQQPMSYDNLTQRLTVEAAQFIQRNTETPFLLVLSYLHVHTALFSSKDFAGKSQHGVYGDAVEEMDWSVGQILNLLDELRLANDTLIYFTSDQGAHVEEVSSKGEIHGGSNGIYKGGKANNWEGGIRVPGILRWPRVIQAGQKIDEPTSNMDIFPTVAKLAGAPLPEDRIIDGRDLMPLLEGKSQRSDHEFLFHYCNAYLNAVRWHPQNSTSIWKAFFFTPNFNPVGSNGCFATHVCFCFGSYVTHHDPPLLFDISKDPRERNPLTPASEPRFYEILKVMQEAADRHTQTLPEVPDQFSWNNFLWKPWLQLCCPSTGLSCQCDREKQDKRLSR
The experiment can be described thus: Steroid sulfatase (STS) inhibition, [3H]-E1S to [3H]-E1, homogenate of transfected HEK-293 cells. The note with it: transformation of E1S into E1 in homogenate of HEK-293 cells transfected with STS; read-out: Steroid Sulfatase Inhibition IC50. The experiment is classed as biochemical. As for the experimental part: To test STS inhibition, we used homogenated HEK-293 cells overexpressing STS and evaluated the capacity of our compounds to inhibit the conversion of [^3H]-E1S into [^3H]-E1. […] This is outlined in FIG. 5.
An enzymatic assay previously described was used for the inhibition of the transformation of estrone sulfate (E1S) to estrone (E1) by STS.^72 Briefly, the transfected HEK-293 cells were homogenized by repeated (5 times) cycles of freezing (−80° C.) and thawing on ice (4° C.). The homogenates were then incubated for 2 h at 37° C. (shaking water bath) with or without inhibitors (0.01 μM-1 μM) in presence of [^3H]-E1S (9 nM), adjusted to 1 μM with E1S, in a Tris-acetate buffer (pH 7.4) containing 5 mM EDTA and 10% glycerol. After the incubation, 1 mL of xylene was added to each tube and the solutions were then centrifuged at 3000 rpm for 20 min to separate the organic ([^3H]-E1) and aqueous ([^3H]-E1S) phases. Once 500 μL of each phase was added to 10 mL of Biodegradable Counting Scintillant, the radioactivity of samples was recorded using a Wallac 1411 Liquid Scintillation Counter. The percentage of inhibition was determined by comparison with the control (buffer+homogenate+[^3H]-E1S) which was set to 0% of inhibition. IC50 value was obtained using GraphPad Prism 5 (GraphPad Software, La Jolla, Calif.).

The IC50 is the midpoint of a concentration-inhibition curve. Regarding `C[C@]12CC[C@@H]3c4ccc(O)cc4CC[C@H]3[C@@H]1CC[C@@H]2O` [E2, 17β-estradiol, reference compound], the “proliferation of MCF-7 (ER+) cells” value in experiment [1] is 176%. In experiment [2], the IC50 is greater than 1 µM.
